Test results from the supplement of paper PMC11061612.

Tests used:
Test in all cases: Bliss excess, mean over the matrix (fraction); higher = more synergy
[1] = system: SNU-C1 (Colorectal Carcinoma)
Procedure, shortened: (§1)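 Cell lines grown in DMEM/F12 or RPMI with 10% FBS were plated in 1536-well plates and held 24 hours at 37°C, 5% CO2 before 72 hours of exposure to two-drug dose matrices, with DMSO typically at 0.2%. CellTiter-Glo 2.0 luminescence gave viability, which was converted to inhibition. Vehicle wells were set to 0 and blank wells to 1. Combination Emax is the second-highest inhibition in the matrix, and Bliss excess is the observed combination effect minus the expected EA + EB − EA·EB, where EA and EB are the single-agent effects.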

[2] = system: HuP-T3 (Pancreatic Carcinoma)
Procedure, shortened: as §1

[3] = system: OVISE (Ovarian Carcinoma)
Procedure, shortened: as §1

[4] = system: NCI-H2405 (Lung Adenocarcinoma)
Procedure, shortened: as §1

[5] = system: ASH-3 (Thyroid Gland Carcinoma)
Procedure, shortened: as §1

U-87-MG (Glioblastoma) = system: U-87-MG (Glioblastoma)
Procedure, shortened: as §1

IMR-5 (Neuroblastoma) = system: IMR-5 (Neuroblastoma)
Procedure, shortened: as §1

[6] = system: H-EMC-SS (Chondrosarcoma)
Procedure, shortened: as §1

EW-13 (Ewing's Sarcoma) = system: EW-13 (Ewing's Sarcoma)
Procedure, shortened: as §1

BT-20 (Breast Carcinoma) = system: BT-20 (Breast Carcinoma)
Procedure, shortened: as §1

[7] = system: LOU-NH91 (Squamous Cell Lung Carcinoma)
Procedure, shortened: as §1

[8] = system: SCC-9 (Oral Cavity Carcinoma)
Procedure, shortened: as §1

[9] = system: EBC-1 (Squamous Cell Lung Carcinoma)
Procedure, shortened: as §1

[10] = system: LC4-1 (B-Lymphoblastic Leukemia)
Procedure, shortened: as §1

[11] = system: KU-19-19 (Bladder Carcinoma)
Procedure, shortened: as §1

[12] = system: OCUB-M (Breast Carcinoma)
Procedure, shortened: as §1

[13] = system: NCI-H322M (Lung Adenocarcinoma)
Procedure, shortened: as §1

[14] = system: DG-75 (Burkitt's Lymphoma)
Procedure, shortened: as §1

[15] = system: KLE (Endometrial Carcinoma)
Procedure, shortened: as §1

[16] = system: KINGS-1 (Low Grade Glioma)
Procedure, shortened: as §1

Compound	Bliss excess [1]	Bliss excess [2]	Bliss excess [3]	Bliss excess [4]	Bliss excess [5]	Bliss excess (U-87-MG (Glioblastoma))	Bliss excess (IMR-5 (Neuroblastoma))	Bliss excess [6]	Bliss excess (EW-13 (Ewing's Sarcoma))	Bliss excess (BT-20 (Breast Carcinoma))	Bliss excess [7]	Bliss excess [8]	Bliss excess [9]	Bliss excess [10]	Bliss excess [11]	Bliss excess [12]	Bliss excess [13]	Bliss excess [14]	Bliss excess [15]	Bliss excess [16]
CC(=O)c1c(C)c2cnc(Nc3ccc(N4CCNCC4)cn3)nc2n(C2CCCC2)c1=O [Palbociclib] + Cn1cnc2c(F)c(Nc3ccc(Br)cc3Cl)c(C(=O)NOCCO)cc21 [Selumetinib] (first compound max 10 µM, 7x7, partner max 10 µM)	0.0288	-0.014	-0.0174	-0.016	-0.0805	-0.0929	0.0682	0.008	-0.0287	0.0253	-0.0975	0.0811	0.0982	0.0312	-0.0054	-0.0413	0.0515	0.028	0.0167	-0.0272
CC1(C)CCC(CN2CCN(c3ccc(C(=O)NS(=O)(=O)c4ccc(NCC5CCOCC5)c([N+](=O)[O-])c4)c(Oc4cnc5[nH]ccc5c4)c3)CC2)=C(c2ccc(Cl)cc2)C1 [Venetoclax] + C[C@@H]1COCCN1C2=NC(=NC(=C2)C3(CC3)[S@](=N)(=O)C)C4=C5C=CNC5=NC=C4 [AZD6738] (first compound max 1 µM, 7x7, partner max 10 µM)	-0.124	-0.0201	-0.0658	-0.06	-0.131	-0.0487	0.0104	-0.0416	0.0008	-0.0511	-0.0023	-0.0433	-0.0731	0.0467	-0.0844	-0.0107	-0.0433	-0.0021	-0.0538	-0.0432
NC1(C(=O)N[C@@H](CCO)c2ccc(Cl)cc2)CCN(c2ncnc3[nH]ccc23)CC1 [Capivasertib] + CCN(CCO)CCCOc1ccc2c(Nc3cc(CC(=O)Nc4cccc(F)c4)[nH]n3)ncnc2c1 [AZD2811] (first compound max 10 µM, 7x7, partner max 1 µM)	-0.0407	-0.0317	0.0015	-0.0535	-0.0147	0.0175	-0.0144	-0.0105	0.007	-0.0003	-0.0075	-0.0281	0.0429	-0.0221	0.0011	-0.0217	0.0203	0.04	-0.0611	-0.0012
